Measured values taken from publication PMC6770214, “An Aromatic Aldehyde Synthase Controls the Synthesis of Hydroxytyrosol Derivatives Present in Virgin Olive Oil” (Antioxidants, 2019).

T1: OeAAS (Olea europaea, UniProt A0A8S0T2W9)
T1 construct: gene OLEA9_A000744; codon-optimised synthetic gene in pET-28a(+)-TEV (NdeI-XhoI), His-tagged, E. coli BL21(DE3), Ni-NTA
T1 sequence (A0A8S0T2W9 1-487): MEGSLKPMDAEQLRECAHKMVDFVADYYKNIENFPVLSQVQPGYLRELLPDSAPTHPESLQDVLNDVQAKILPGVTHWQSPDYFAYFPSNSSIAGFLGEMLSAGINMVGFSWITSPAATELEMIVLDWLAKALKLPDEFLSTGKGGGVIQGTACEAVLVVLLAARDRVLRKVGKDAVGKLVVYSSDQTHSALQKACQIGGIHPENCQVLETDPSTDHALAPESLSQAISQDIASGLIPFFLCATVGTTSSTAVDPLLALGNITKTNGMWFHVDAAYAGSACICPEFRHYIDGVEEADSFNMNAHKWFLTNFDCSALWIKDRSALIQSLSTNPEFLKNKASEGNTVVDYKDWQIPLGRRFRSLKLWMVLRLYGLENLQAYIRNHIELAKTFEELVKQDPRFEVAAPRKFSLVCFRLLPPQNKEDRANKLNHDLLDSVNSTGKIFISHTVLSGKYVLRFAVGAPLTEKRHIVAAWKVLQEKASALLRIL


How the values were obtained:
OeAAS = molecular target: T1, OeAAS; experiment: loss and restoration of enzyme activity without / with PLP; assay type: biochemical; details: PLP omitted during purification or in reaction medium
[1] = substrate: N[C@@H](Cc1ccc(O)c(O)c1)C(=O)O; experiment: HPLC-DAD quantification of aldehyde product; assay type: biochemical, Olea europaea; details: 50 mM sodium phosphate pH 6.8, 200 uM PLP, 30 °C, 20 min, L-DOPA 0.05-5 mM

Row | Molecule | loss and restoration of enzyme activity without / with PLP (OeAAS) | Km [1]
1 | Cc1ncc(COP(=O)(O)O)c(C=O)c1O [PLP] | absence of PLP during purification or in the reaction medium resulted in a total loss | –
2 | OeAAS (Olea europaea subsp. europaea) (protein, codon-optimised synthetic gene in pET-28a(+)-TEV (NdeI-XhoI), His-tagged, E. coli BL21(DE3), Ni-NTA) MEGSLKPMDAEQLRECAHKMVDFVADYYKNIENFPVLSQVQPGYLRELLPDSAPTHPESLQDVLNDVQAKILPGVTHWQSPDYFAYFPSNSSIAGFLGEMLSAGINMVGFSWITSPAATELEMIVLDWLAKALKLPDEFLSTGKGGGVIQGTACEAVLVVLLAARDRVLRKVGKDAVGKLVVYSSDQTHSALQKACQIGGIHPENCQVLETDPSTDHALAPESLSQAISQDIASGLIPFFLCATVGTTSSTAVDPLLALGNITKTNGMWFHVDAAYAGSACICPEFRHYIDGVEEADSFNMNAHKWFLTNFDCSALWIKDRSALIQSLSTNPEFLKNKASEGNTVVDYKDWQIPLGRRFRSLKLWMVLRLYGLENLQAYIRNHIELAKTFEELVKQDPRFEVAAPRKFSLVCFRLLPPQNKEDRANKLNHDLLDSVNSTGKIFISHTVLSGKYVLRFAVGAPLTEKRHIVAAWKVLQEKASALLRIL | – | 150 µM
